Data taken from patent US7485651B2, “Compounds with activity on muscarinic receptors” (Acadia Pharmaceuticals, Inc., priority 1998, dated 2009).

Target: T1, α-adrenergic receptor subtype 2C (Homo sapiens, UniProt P18825)
T1 sequence (P18825 1-462): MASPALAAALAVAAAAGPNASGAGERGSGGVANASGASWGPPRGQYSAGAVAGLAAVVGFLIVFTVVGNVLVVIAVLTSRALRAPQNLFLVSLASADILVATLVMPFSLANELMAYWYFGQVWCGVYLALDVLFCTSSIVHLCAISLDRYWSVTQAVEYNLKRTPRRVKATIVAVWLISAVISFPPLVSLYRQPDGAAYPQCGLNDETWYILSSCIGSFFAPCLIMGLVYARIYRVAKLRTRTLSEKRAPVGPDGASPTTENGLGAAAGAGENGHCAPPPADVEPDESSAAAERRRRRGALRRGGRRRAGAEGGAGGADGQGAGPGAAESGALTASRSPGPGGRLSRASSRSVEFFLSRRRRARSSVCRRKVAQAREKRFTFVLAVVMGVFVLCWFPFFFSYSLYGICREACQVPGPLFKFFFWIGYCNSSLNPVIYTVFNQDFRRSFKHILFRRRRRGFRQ
Experiment: Test against other receptors: α-adrenergic 2C
Type: cell-based

CCCCC1CCN(CCCC(=O)c2ccccc2C)CC1 [Compound A, 4-n-Butyl-1-[4-(2-methylphenyl)-4-oxo-1-butyl]piperidine]
agonist activity: no significant activity
inhibition of receptor responses (antagonist experiments): did not inhibit
